“Also recorded” adds a separate entry of the source. Read-outs that look alike come from different tables or passages of the source.
Experiments:
[1] = test system: Paclitaxel-induced neuropathy; assay: Prevention of paclitaxel-induced neuropathy; format: in vivo, rat; details: 15 mg/kg intraperitoneally 30 minutes prior to paclitaxel; rats
Protocol: A mixture of saline and CREMOPHOR®ELP 10% was used as vehicle for paclitaxel. It was injected at a concentration of 1.0 mg/kg intraperitoneally to the chemotherapy-treated group of rats on 4 consecutive days for a final cumulative dose of 4 mg/kg to 18 rats.
Assessment of neuropathic pain. Paw withdrawal thresholds were determined daily in both hind paws of each animal using calibrated von Frey monofilaments according to an up-down procedure. A series of von Frey filaments with exponentially incremental degrees of stiffness (0.4, 0.7, 1.2, 2.0, 3.6, 5.5, 8.5, and 15.1 g) was used to measure the 50% threshold for both hindpaw withdrawal in awake, unrestrained rats. Chaplan, S. R., Quantitative assessment of tactile allodynia in the rat paw, Journal of Neuroscience Methods, 1994, 53:55-63. […]
Group 1 of rats received paclitaxel for four days, as described immediately above in subpart (A) titled “Paclitaxel-induced Neuropathy.” In group 2, a dose of 15 mg/kg of the compound of Example 6, injected intraperitoneally was administered 30 minutes prior to the administration of paclitaxel. […] Paw withdrawal thresholds were determined daily in both hind paws of each animal using calibrated von Frey monofilaments according to an up-down procedure as described immediately above in subpart (A) titled “Paclitaxel-induced Neuropathy.” The results are shown in FIG. 14.

[2] = target: T1, human CB2 (hCB2) receptor (Homo sapiens, UniProt P34972); assay: CB2 binding assay, competitive binding of [3H]WIN 55212-2
T1 construct: expressed in transfected cells; host or cells: CHO (Chinese hamster ovary) cells, membranes
How it was run: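 CHO cell membranes expressing hCB2 (15 μg protein) incubated 120 min at 37° C with 0.8 nM [3H]WIN 55212-2 in 50 mM HEPES/Tris pH 7.4, 5 mM MgCl2, 2.5 mM EGTA, 0.1% BSA; nonspecific binding with 10 μM WIN 55212-2. Filtration and scintillation counting; compounds at 1 μM, reported as % inhibition of control specific binding.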

hCB2 receptor = target: T2, hCB2 receptor (Homo sapiens, UniProt P34972); assay: CB2 functional assay, [35S]GTP-γ-S binding; format: biochemical
T2 construct: purchased ES-111-MG; host or cells: CHO membrane extracts
Protocol: A dose response curve was generated at eight concentrations in duplicate on CB1 and CB2 in light of reference agonists.
Membranes (CB1, ES-110-MG or CB2, ES-111-MG) are mixed with GDP (volume:volume) and incubated for at least […] on ice. In parallel, […] are mixed with the beads (volume:volume) just before starting the reaction. The following reagents are successively added in the wells of an Optiplate: 50 μl of ligand, 20 μl of the membranes:GDP mix, 10 μl of assay buffer for agonist testing and 20 μl of the […]: beads mix. The plates are covered with a topseal, shaken on an orbital shaker for 2 min, and then incubated between 30 to 60 min at room temperature. Then the plates are centrifuged for 10 min at 2000 rpm, incubated at room temperature between 1 to 4 hours and counted for 1 min with a PerkinElmer TopCount reader.
Functional activity for acyl hydrazone was evaluated using [^35S]GTP-γ-S assay in CHO membrane extracts expressing recombinant hCB1 receptor or hCB2 receptor. The assay relies on the binding of [^35S]GTP-γ-S, a radiolabeled nonhydrolyzable GTP analogue, to the G protein upon binding of an agonist of the G-protein-coupled receptor. In this system, agonists stimulate [^35S]GTP-γ-S binding whereas neutral antagonist have no effect and inverse agonists decrease [^35S]GTP-γ-S basal binding.
CB1 and CB2 assay data are presented as the mean of two determinations. […] For replicate determinations, the maximum variability tolerated in the test was of ±20% around the average of the replicates.

exploratory behavior = assay: Open field chamber testing; format: in vivo, rat; details: 15 mg/kg i.p.; versus vehicle; scored for 60 minutes; rats
Protocol: The automated open-field chamber (Med Associates ENV-515 Test Environment, St. Albans, Vt.) 43.2×43.2×30.5 cm (L×W×H) equipped with three pairs of 16 infrared arrays that continually monitored the animal's movement was used to determine potential CNS effects of compound of Example 6 and the vehicle in naïve rats. Rats were individually tested 15 min after i.p. drug administration. The infrared beams were set 2.5 cm apart horizontally and at a height of 3 cm above the floor, with the rearing array set at 12 cm from the floor. The area in the box was divided into 4 equal quadrants (zones), with data collected within each quadrant and across quadrants (zone entries). An ambulatory movement was defined as a motion of at least 5 cm and was coded by quadrant. Vertical movements were counted when the rat moved vertically a minimum of 12 cm from the floor. Zone entries were defined as an entry into a zone (from another zone). Entry into a zone was counted when the rat was far enough into the zone to break 2 sets of photoelectric beams for the new zone beams during an ambulatory movement.

T2 sequence (P34972 whole entry): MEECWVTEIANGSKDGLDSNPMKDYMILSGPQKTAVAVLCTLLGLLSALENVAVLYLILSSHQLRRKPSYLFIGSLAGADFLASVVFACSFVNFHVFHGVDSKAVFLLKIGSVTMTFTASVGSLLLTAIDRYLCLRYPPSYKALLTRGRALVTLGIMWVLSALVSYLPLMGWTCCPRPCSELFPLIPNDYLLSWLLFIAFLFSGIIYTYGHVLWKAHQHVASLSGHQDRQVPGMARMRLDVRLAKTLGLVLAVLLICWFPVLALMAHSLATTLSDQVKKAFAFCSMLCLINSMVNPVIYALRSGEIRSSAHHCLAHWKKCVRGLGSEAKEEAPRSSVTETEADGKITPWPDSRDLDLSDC
T1 sequence (P34972 whole entry): as above

CCCCCCN1C(=O)/C(=N\NC(=O)c2ccccc2)c2ccccc21 [Example 6, Benzoic acid [1-n-hexyl-2-oxo-1,2-dihydro-indol-3-ylidene]-hydrazide] was tested, and the “development of paclitaxel-induced peripheral neuropathy (paw withdrawal threshold)” value [1] was “prevented the development of neuropathic pain induced by paclitaxel”, the “% Inhibition of Control Specific Binding” value ([2]; CB2, Test Concentration 1.0E−05 (MD)) was 93% and the “% of Control Specific Binding 1st” value ([2]; CB2, Test Concentration 1.0E−05 (MD), 1st determination) was −1.5%. For the same compound, the “% of Control Specific Binding 2nd” value ([2]; CB2, Test Concentration 1.0E−05 (MD), 2nd determination) was 15.9%, the “% of Control Specific Binding Mean” value ([2]; CB2, Test Concentration 1.0E−05 (MD), mean) was 7.2% and the “% Inhibition of Control Specific Binding CB2” value ([2]; Table 4, concentration not given) was 93%. For the same compound, the inhibition at 1 µM ([2]; read-out: % inhibition hCB2 receptor, at 1 μM, specific binding of [3H]-WIN55212-2, CHO membranes) was 92.8 ± 8.7%, the inhibition at 10 µM ([2]; read-out: % inhibition hCB2 receptor, at 10 μM, specific binding of [3H]-WIN55212-2) was 92.8 ± 8.7% and the “% Activation Average” value (hCB2 receptor; CB2 Functional Activity) was 68.81%. For the same compound, the “Compound Activity” value (hCB2 receptor; CB2 Functional Activity) was “Agonist”, the EC50 (hCB2 receptor; CB2 Functional Activity, read-out: EC50 (nM) for GTP Binding) was 63.4 nM and the “ratio EC50(CB1)/EC50(CB2)” value (hCB2 receptor; CB2 receptor selectivity, [35S]GTP-γ-S) was 14. The EC50 (hCB2 receptor; Table 7, mean of two determinations, read-out: [35S]GTP-γ-S (hCB2) EC50 (nM ± SEM)) was 63.4 ± 1.3 nM, the Emax (hCB2 receptor; Table 7, relative to the efficacy of CP55940) was 68.8% and the EC50 (hCB2 receptor; Table 9, mean of two determinations, read-out: [35S]GTP-γ-S hCB2 EC50 (nM ± SEM)) was 63.4 ± 1.3 nM. For the same compound, the Emax (hCB2 receptor; Table 9, relative to the efficacy of CP 55,940) was 68.8%, the “times less potent compared to the reference compound CP55,940” value (hCB2 receptor; functional activity, [35S]GTP-γ-S) was “seven” and the “exploratory behavior in the open field (distance traveled, ambulatory time, vertical activity, zone entries)” value (exploratory behavior) was “No significant differences; also recorded: did not decrease the exploratory behavior”.
